Experimental data from patent US11542266B1, “Substituted piperidines as BTK inhibitors” (HAISCO PHARMACEUTICALS PTE. LTD., priority 2019, dated 2023).
Structures can show the parent of a compound that is named as a salt. Where two headings read alike, the source gives them in different places.

Tested on: Mino cells
Test: Inhibition of cell proliferation, Mino cells (Cell Viability Assay, 72 h)
Type: cell-based, human
Conditions: for Mino Max inhi. %: inhibition rate at the highest concentration of the compound
Description: SU-DHL-4, Mino, and SU-DHL-6 cells, in the culture medium of RPMI1640+10% FBS, were cultured in an incubator at 37° C. under 5% CO2. Cells were plated in a 96-well plate. Specifically, SU-DHL-4 cells were at 20000/well, Mino and SU-DHL-6 cells were at 5000/well, with 90 μL/well. 10 μL of the compounds at different concentrations were added to each well. There were 3 replicate wells for each concentration, and the last column, added with DMSO, was used as a vehicle control group. The cultures were continued for 72 hours at 37° C. under 5% CO2. After 72 hours, 100 μL of detection reagent (Cell Viability Assay, Promega, G7573) was added to each well, and the cultures were uniformly mixed for 2 minutes, and incubated at room temperature for 10 minutes. The fluorescence signal value was measured with a microplate reader (PHERAstar FSX). The IC50 value of the compound on cell proliferation inhibition was calculated using Origin 9.2 software, and the inhibition rate at the highest concentration of the compound (Max inhi. %) was calculated according to formula (1). Max inhi. %=(1-T72 administration/T72 vehicle)×100 Formula (1).

| Compound | Mino Max inhi. % [%] | IC50 (Homo sapiens) [nM] | further results |
| --- | --- | --- | --- |
| Nc1ncnc2c1c(-c1ccc(Oc3ccccc3)cc1)nn2C1CCN(C2CN(C3CCN(C4CCN(c5ccc6c(c5)C(=O)N(C5CCC(=O)NC5=O)C6=O)CC4)CC3)C2)CC1 (stereo not shown) [Compound 15, 5-[4-[4-[3-[4-[4-amino-3-(4-phenoxyphenyl)pyrazolo[3,4-d]pyrimidin-1-yl]-1-piperidyl]azetidin-1-yl]-1-piperidyl]-1-piperidyl]-2-(2,6-dioxo-3-piperidyl)isoindoline-1,3-dione] | 99.8 |  |  |
| Nc1ncnc2c1c(-c1ccc(Oc3ccccc3)cc1)nn2C1CCN(C2CCN(C3CN(C4CCN(c5ccc6c(c5)C(=O)N(C5CCC(=O)NC5=O)C6=O)CC4)C3)C2)CC1 (stereo not shown) [Compound 16, 5-[4-[3-[3-[4-[4-amino-3-(4-phenoxyphenyl)pyrazolo[3,4-d]pyrimidin-1-yl]-1-piperidyl]pyrrolidin-1-yl]azetidin-1-yl]-1-piperidyl]-2-(2,6-dioxo-3-piperidyl)isoindoline-1,3-dione] | 99.7 |  |  |
| Nc1ncnc2c1c(-c1ccc(Oc3ccccc3)cc1)nn2C1CCN(C2CN(C3CCN(c4ccc5c(c4)C(=O)N(C4CCC(=O)NC4=O)C5=O)CC3)C2)CC1 (stereo not shown) [Compound 23, 5-[4-[3-[4-[4-amino-3-(4-phenoxyphenyl)pyrazolo[3,4-d]pyrimidin-1-yl]-1-piperidyl]azetidin-1-yl]-1-piperidyl]-2-(2,6-dioxo-3-piperidyl)isoindoline-1,3-dione] |  | 295 |  |
| Nc1ncnc2c1c(-c1ccc(Oc3ccccc3)cc1)nn2C1CCN(C2CCN(C3CN(c4ccc5c(c4)C(=O)N(C4CCC(=O)NC4=O)C5=O)C3)C2)CC1 (stereo not shown) [Compound 24, 5-[3-[3-[4-[4-amino-3-(4-phenoxyphenyl)pyrazolo[3,4-d]pyrimidin-1-yl]-1-piperidyl]pyrrolidin-1-yl]azetidin-1-yl]-2-(2,6-dioxo-3-piperidyl)isoindoline-1,3-dione] |  | 629 |  |
| Nc1ncnc2c1c(-c1ccc(Oc3ccccc3)cc1)nn2C1CCN(C2CCN(C3CN(c4ccc5c(c4)CN(C4CCC(=O)NC4=O)C5=O)C3)CC2)CC1 (stereo not shown) [Compound 25, 3-[5-[3-[4-[4-[4-amino-3-(4-phenoxyphenyl)pyrazolo[3,4-d]pyrimidin-1-yl]-1-piperidyl]-1-piperidyl]azetidin-1-yl]-1-oxo-isoindolin-2-yl]piperidine-2,6-dione] |  | 282 |  |
| Nc1ncnc2c1c(-c1ccc(Oc3ccccc3)cc1)nn2C1CCN(C2CN(C3CN(c4ccc5c(c4)CN(C4CCC(=O)NC4=O)C5=O)C3)C2)CC1 (stereo not shown) [Compound 26, 3-[5-[3-[3-[4-[4-amino-3-(4-phenoxyphenyl)pyrazolo[3,4-d]pyrimidin-1-yl]-1-piperidyl]azetidin-1-yl]azetidin-1-yl]-1-oxo-isoindolin-2-yl]piperidine-2,6-dione] | 74.3 |  |  |
| Nc1ncnc2c1c(-c1ccc(Oc3ccccc3)cc1)nn2C1CCN(C2CN(C3CN(c4cccc5c4C(=O)N(C4CCC(=O)NC4=O)C5=O)C3)C2)CC1 (stereo not shown) [Compound 27, 4-[3-[3-[4-[4-amino-3-(4-phenoxyphenyl)pyrazolo[3,4-d]pyrimidin-1-yl]-1-piperidyl]azetidin-1-yl]azetidin-1-yl]-2-(2,6-dioxo-3-piperidyl)isoindoline-1,3-dione] |  | 503 |  |
| Nc1ncnc2c1c(-c1ccc(Oc3ccccc3)cc1)nn2C1CCN(C2CN(C3CN(c4ccc5c(c4)C(=O)N(C4CCC(=O)NC4=O)C5=O)C3)C2)C1 (stereo not shown) [Compound 29, 5-(3-(3-(4-amino-3-(4-phenoxyphenyl)-1H-pyrazolo[3,4-d]pyrimidin-1-yl)pyrrolidin-1-yl)-[1,3′-biazetidin]-1′-yl)-2-(2,6-dioxopiperidin-3-yl)isoindoline-1,3-dione trifluoroacetate] | 71.2 |  |  |
| NC(=O)c1c(-c2ccc(Oc3ccccc3)cc2)nn2c1NCC[C@H]2C1CCN(C2CCN(C3CN(c4ccc5c(c4)C(=O)N(C4CCC(=O)NC4=O)C5=O)C3)CC2)CC1 (stereo partly drawn) [Compound 30, (7S)-7-[1-[1-[1-[2-(2,6-dioxo-3-piperidyl)-1,3-dioxo-isoindolin-5-yl]azetidin-3-yl]-4-piperidyl]-4-piperidyl]-2-(4-phenoxyphenyl)-4,5,6,7-tetrahydropyrazolo[1,5-a]pyrimidine-3-carboxamide trifluoroacetate] | 82.5 |  |  |
| NC(=O)c1c(-c2ccc(Oc3ccccc3)cc2)nn2c1NCC[C@H]2C1CCN(C2CN(C3CN(c4ccc5c(c4)C(=O)N(C4CCC(=O)NC4=O)C5=O)C3)C2)CC1 (stereo partly drawn) [Compound 31, (7S)-7-[1-[1-[1-[2-(2,6-dioxo-3-piperidyl)-1,3-dioxo-isoindolin-5-yl]azetidin-3-yl]azetidin-3-yl]-4-piperidyl]-2-(4-phenoxyphenyl)-4,5,6,7-tetrahydropyrazolo[1,5-a]pyrimidine-3-carboxamide trifluoroacetate] | 78.3 |  |  |
| Nc1ncnc2c1c(-c1ccc(Oc3ccccc3)cc1)nn2C1CCN(C2CCN(C3CN(c4ccc5c(c4)C(=O)N(C4CCC(=O)NC4=O)C5=O)C3)CC2F)CC1 (stereo not drawn) [Compound 46-1, trans-5-(3-(4-(4-amino-3-(4-phenoxyphenyl)-1H-pyrazolo[3,4-d]pyrimidin-1-yl)-3′-fluoro-[1,4′-bipiperidin]-1′-yl)azetidin-1-yl)-2-(2,6-dioxopiperidin-3-yl)isoindoline-1,3-dione-P1] |  |  | IC50: 27 nM |
| NC(=O)c1c(-c2ccc(Oc3ccccc3)cc2)nn2c1NCC[C@H]2C1CCN(C2CCN(c3ccc4c(c3)C(=O)N(C3CCC(=O)NC3=O)C4=O)CC2)CC1 (stereo partly drawn) [Compound 48, (7S)-7-(1′-(2-(2,6-dioxopiperidin-3-yl)-1,3-dioxo-isoindolin-5-yl)-[1,4′-bipiperidin]-4-yl)-2-(4-phenoxyphenyl)-4,5,6,7-tetrahydropyrazolo[1,5-a]pyrimidine-3-carboxamide] | 95.7 |  |  |
| Nc1ncnc2c1c(-c1ccc(Oc3ccccc3)cc1)nn2C1CCN(C2CCN(C3CN(c4ccc5c(c4)C(=O)N(C4CCC(=O)NC4=O)C5=O)C3)CC2F)CC1 (stereo not drawn) [Compound 49-1, cis-5-(3-(4-(4-amino-3-(4-phenoxyphenyl)-1H-pyrazolo[3,4-d]pyrimidin-1-yl)-3′-fluoro-[1,4′-bipiperidin]-1′-yl)azetidin-1-yl)-2-(2,6-dioxopiperidin-3-yl)isoindoline-1,3-dione-P1] |  |  | IC50: 113 nM |
| Nc1ncnc2c1c(-c1ccc(Oc3ccccc3)cc1)nn2C1CCN(C2CC3(CCN(C4CN(c5ccc6c(c5)C(=O)N(C5CCC(=O)NC5=O)C6=O)C4)CC3)C2)CC1 (stereo not shown) [Compound 50, 5-(3-(2-(4-(4-amino-3-(4-phenoxyphenyl)-1H-pyrazolo[3,4-d]pyrimidin-1-yl)piperidin-1-yl)-7-azaspiro[3.5]nonan-7-yl)azetidin-1-yl)-2-(2,6-dioxopiperidin-3-yl)isoindoline-1,3-dione] |  | 112 |  |
| Nc1ncnc2c1c(-c1ccc(Oc3ccccc3)cc1)nn2C1CCN(C2CC3(CCN(C4CC5(CCN(c6ccc7c(c6)C(=O)N(C6CCC(=O)NC6=O)C7=O)CC5)C4)CC3)C2)CC1 (stereo not shown) [Compound 51, 5-(2′-(4-(4-amino-3-(4-phenoxyphenyl)-1H-pyrazolo[3,4-d]pyrimidin-1-yl)piperidin-1-yl)-7,7′-diaza[2,7′-bispiro[3.5]nonan]-7-yl)-2-(2,6-dioxopiperidin-3-yl)isoindoline-1,3-dione] | 99.7 |  |  |
| Nc1ncnc2c1c(-c1ccc(Oc3ccccc3)cc1)nn2C1CCN(C2C[C@@H]3CN(C4CC5(CCN(c6ccc7c(c6)C(=O)N(C6CCC(=O)NC6=O)C7=O)CC5)C4)C[C@@H]3C2)CC1 (stereo partly drawn) [Compound 52, 5-(2-((3aR,6aS)-5-(4-(4-amino-3-(4-phenoxyphenyl)-1H-pyrazolo[3,4-d]pyrimidin-1-yl)piperidin-1-yl)hexahydrocyclopenta[c]pyrrol-2(1H)-yl)-7-azaspiro[3.5]nonan-7-yl)-2-(2,6-dioxopiperidin-3-yl)isoindoline-1,3-dione] | 99.7 |  |  |
| Nc1ncnc2c1c(-c1ccc(Oc3ccccc3)cc1)nn2C1CCN(C2C[C@@H]3CN(C4C[C@@H]5CN(c6ccc7c(c6)C(=O)N(C6CCC(=O)NC6=O)C7=O)C[C@@H]5C4)C[C@@H]3C2)CC1 (stereo partly drawn) [Compound 53, 5-((3aR,3′aR,6aS,6′aS)-5-(4-(4-amino-3-(4-phenoxyphenyl)-1H-pyrazolo[3,4-d]pyrimidin-1-yl)piperidin-1-yl)dodecahydro-1H-[2,5′-bi(cyclopenta[c]pyrrol)]-2′(1′H)-yl)-2-(2,6-dioxopiperidin-3-yl)isoindoline-1,3-dione trifluoroacetate] | 99.6 |  |  |
| Nc1ncnc2c1c(-c1ccc(Oc3ccccc3)cc1)nn2C1CCN(C2CN(C3CCC4(CC3)CN(c3ccc5c(c3)C(=O)N(C3CCC(=O)NC3=O)C5=O)C4)C2)CC1 (stereo not shown) [Compound 54, 5-(7-(3-(4-(4-amino-3-(4-phenoxyphenyl)-1H-pyrazolo[3,4-d]pyrimidin-1-yl)piperidin-1-yl)azetidin-1-yl)-2-azaspiro[3.5]nonan-2-yl)-2-(2,6-dioxopiperidin-3-yl)isoindoline-1,3-dione] |  | 200 |  |
| Nc1ncnc2c1c(-c1ccc(Oc3ccccc3)cc1)nn2C1CCN(C2CCC3(CC2)CN(C2CCC4(CC2)CN(c2ccc5c(c2)C(=O)N(C2CCC(=O)NC2=O)C5=O)C4)C3)CC1 (stereo not shown) [Compound 55, 5-(7-(4-(4-amino-3-(4-phenoxyphenyl)-1H-pyrazolo[3,4-d]pyrimidin-1-yl)piperidin-1-yl)-2,2′-diaza[2,7′-bispiro[3.5]nonan]-2′-yl)-2-(2,6-dioxopiperidin-3-yl)isoindoline-1,3-dione] | 99.9 |  |  |
